For assay [1], the system named is A549. The experiment in a line: Antiproliferative activity against human A549 cells. It is filed as functional, cell-based.
A short description of assay [2]: (§1) Antiproliferative activity against human HCT116 cells. It is filed as functional, cell-based. The note with it: HCT-116.
In assay [3] the test system is A549. Kind of assay: Inhibition of tyrosine kinase in human A549 cells at IC50 after 24 hrs by ELISA relative to control. The class given is cell-based.
Assay [4] relates to HCT-116. Kind of assay: Inhibition of tyrosine kinase in human HCT116 cells at IC50 after 24 hrs by ELISA relative to control. The class given is cell-based.
In assay [5] the test system is HCT-116. Described as §1. It is filed as functional, cell-based.

In brackets after ≈: the same amount, converted by molar mass. Activity calls are given as the source filed them. The rule behind the calls is not given here.

As usually defined, the IC50 is the concentration that inhibits the measured activity by half. Read a high IC50 as weaker potency in that assay. Usually inhibition stands for the change of the read-out against control, counted positive when it falls.

With `CCOC(=O)c1nn(-c2ccc(Cl)cc2)c2nc3cc4nc5ccccc5nc4cc3n12`, the IC50 in assay [1] came to 17.6 mg/L (≈ 39.7 µM); in assay [2], 8.75 mg/L (≈ 19.8 µM). Besides, the values for the inhibition in assay [3] and in assay [4] were 50% and 37%, respectively.

Turning to `S=c1[nH]c2cc3nc4ccccc4nc3cc2[nH]1`, the IC50 in assay [1] is 7.7 mg/L (≈ 30.5 µM); in assay [2] it was 4.4 mg/L (≈ 17.4 µM). Besides, the inhibition in assay [3] was 86%; in assay [4], 85%.

`c1ccc2nc3cc4[nH]cnc4cc3nc2c1`: the IC50 stood at 21.7 mg/L (≈ 98.5 µM) in assay [1] and 11.4 mg/L (≈ 51.8 µM) in assay [2]. Further, the inhibition is 5% in assay [3] and 3% in assay [4].

As for `CSc1nc2cc3nc4ccccc4nc3cc2[nH]1`, the half-inhibitory concentration (IC50) in assay [1] was found to be 8.4 mg/L (≈ 31.5 µM); in assay [2] it was 5.2 mg/L (≈ 19.5 µM). Moreover, the results for the inhibition in assay [3] and in assay [4] were 85% and 84%, respectively.

As for `c1ccc2nc3c(nc2c1)Nc1cc2nc4ccccc4nc2cc1N3`, the result in assay [1] and in assay [5] was inactive.

For `CC1(C)CC(=O)C(/N=N/c2cc3nc4ccccc4nc3cc2N)C(=O)C1`, the IC50 came out at 22.3 mg/L (≈ 61.7 µM) in assay [1] and 13.9 mg/L (≈ 38.5 µM) in assay [2]. In addition, the inhibition was found to be 2% in assay [3] and 0.6% in assay [4].

As for `Nc1cc2nc3ccccc3nc2cc1/N=N/C1C(=O)ON=C1c1ccccc1` (stereo unspecified), the IC50 in assay [1] amounted to 9.8 mg/L (≈ 25.6 µM); in assay [2], 6.8 mg/L (≈ 17.8 µM). Also, the inhibition in assay [3] is 72%; in assay [4], 68%.

For the compound `O=c1[nH]c2cc3nc4ccccc4nc3cc2[nH]c1=O`, the result in assay [1] and in assay [5] was inactive.

As to `Clc1cccc(-c2nc3cc4nc5ccccc5nc4cc3[nH]2)c1`, the results for the IC50 in assay [1] and in assay [2] were 13.8 mg/L (≈ 41.7 µM) and 7.9 mg/L (≈ 23.9 µM), respectively. Besides, the inhibition in assay [3] turned out to be 15%; in assay [4], 17%.

As for `CCOC(=O)c1nn(-c2ccccc2)c2nc3cc4nc5ccccc5nc4cc3n12`, the IC50 in assay [1] turned out to be 21 mg/L (≈ 51.4 µM); in assay [2], 11.2 mg/L (≈ 27.4 µM). Further, the values for the inhibition in assay [3] and in assay [4] were 11% and 4%, respectively.

Take `CC1CC(=O)Nc2cc3nc4ccccc4nc3cc2N1` (stereo unspecified): the result in assay [1] and in assay [5] was inactive.

`Clc1ccc(-c2nc3cc4nc5ccccc5nc4cc3[nH]2)c(Cl)c1`: the values for the IC50 in assay [1] and in assay [2] were 11.5 mg/L (≈ 31.5 µM) and 6.8 mg/L (≈ 18.6 µM), respectively. Moreover, the inhibition in assay [3] was found to be 16%; in assay [4], 12%.

As for `CCOC(=O)c1nn(-c2ccc(C)cc2)c2nc3cc4nc5ccccc5nc4cc3n12`, the IC50 in assay [1] was found to be 19 mg/L (≈ 45 µM); in assay [2], 9.6 mg/L (≈ 22.7 µM). Moreover, the inhibition turned out to be 14% in assay [3] and 18% in assay [4].

Consider `O=c1oc(=O)c2[nH]c3cc4nc5ccccc5nc4cc3[nH]c1=2`, for which the IC50 worked out at 27.6 mg/L (≈ 90.7 µM) in assay [1] and 14.6 mg/L (≈ 48 µM) in assay [2]. In addition, the inhibition in assay [3] was 2%; in assay [4] it was 0.4%.

Regarding `O=c1[nH]c2cc3nc4ccccc4nc3cc2[nH]/c1=N/Nc1ccccc1`, the outcome in assay [1] and in assay [5] was inactive.

For the compound `c1ccc(-c2nc3cc4nc5ccccc5nc4cc3[nH]2)cc1`, the outcome in assay [1] and in assay [5] was inactive.

On to `CCOC(=O)/C(=N/Nc1ccccc1)Nc1cc2nc3ccccc3nc2cc1N`, for which the outcome in assay [1] and in assay [5] was inactive.

In the case of `O=C(Nc1cc2nc3ccccc3nc2cc1NC(=O)c1ccccc1)c1ccccc1`, the IC50 in assay [1] turned out to be 23.6 mg/L (≈ 56.4 µM); in assay [2] it was 17.5 mg/L (≈ 41.8 µM). The inhibition in assay [3] is 1%; in assay [4] it was 0.5%.

On to `O=C1CC(=O)Nc2cc3nc4ccccc4nc3cc2N1`, for which the result in assay [1] and in assay [5] was inactive.

On to `CCCc1nc2cc3nc4ccccc4nc3cc2[nH]1`, for which the IC50 was determined as 8.4 mg/L (≈ 32 µM) in assay [1] and 6.5 mg/L (≈ 24.8 µM) in assay [2]. Further, the inhibition in assay [3] was 70%; in assay [4], 64%.

`CC1=NN(c2ccccc2)C(=O)C1/N=N/c1cc2nc3ccccc3nc2cc1N` (stereo unspecified): the IC50 turned out to be 22 mg/L (≈ 55.6 µM) in assay [1] and 11.9 mg/L (≈ 30.1 µM) in assay [2]. For the same compound, the inhibition came to 4% in assay [3] and 2% in assay [4].

Consider `Nc1cc2nc3ccccc3nc2cc1N`, for which the concentration for half-maximal inhibition (IC50) in assay [1] was 8.8 mg/L (≈ 41.9 µM); in assay [2] it was 6 mg/L (≈ 28.5 µM). Moreover, the inhibition turned out to be 80% in assay [3] and 72% in assay [4].

With `C(=C\c1nc2cc3nc4ccccc4nc3cc2[nH]1)/c1ccccc1`, the outcome in assay [1] and in assay [5] was inactive.

Values taken from ChEMBL document CHEMBL3397005, “Synthesis and antiproliferative activity of novel polynuclear heterocyclic compounds derived from 2,3-diaminophenazine” (Eur J Med Chem, 2015).
